Experimental data from patent US8563562B2, “Compounds having antiviral properties” (priority 2008, dated 2013).

What was measured:
Format in all cases: cell-based
[1] = tested on: HIV variant E92Q/N155H integrase; test: PhenoScreen (Phenosense) assay, single-round luciferase pseudotyped HIV; details: Human immunodeficiency virus 1, read-out: Activity, Phenosense assay, E92Q/N155H
Description: (§1) Monogram Bioscience' PhenoScreen assay allows the evaluation of integrase inhibitors for activity against a variety of HIV variants. The assay uses virus generated from 2 DNA constructs; one containing the HIV LTR, gag and pol regions, as well as a luciferase reporter gene in place of the viral envelope genes, and a second DNA construct containing the amphotrophic murine leukemia virus (A-MLV) envelope gene required to pseudotype virions and render them capable of entry into a target cell. Viruses generated using these constructs by transfection into a producer cell line such as 293T are capable of one-round of infection only. Successful integration events are directly proportional to the levels of luciferase expression 48 h after infection.
(§2) The viral variants chosen by the present inventors to screen integration inhibitors consist of mutations within the viral integrase enzyme known to confer resistance to a number of known integration inhibitors published in the literature. In particular, the viral variants containing the Q148H/G140S double mutation in integrase, and the N155H/E92Q double mutation in integrase, represent two of the more common viruses identified to arise in patients that are failing treatment with Isentress (Raltegravir, MK-0518).

HIV WT integrase = test: as above; details: Human immunodeficiency virus 1, read-out: Activity, Phenosense assay, WT
Description: as §1, §2

[2] = tested on: HIV variant G140S/Q148H integrase; test: as above; details: Human immunodeficiency virus 1, read-out: Activity, Phenosense assay, G140S Q148H
Description: as §1, §2

[3] = tested on: HIV variant T661/S153Y integrase; test: as above; details: Human immunodeficiency virus 1, read-out: Activity, Phenosense assay, T661 S153Y
Description: as §1, §2

[4] = tested on: HIV variant T125K/F121Y integrase; test: as above; details: Human immunodeficiency virus 1, read-out: Activity, Phenosense assay, T125K F121Y
Description: as §1, §2

[5] = tested on: HIV variant Y143R integrase; test: as above; details: Human immunodeficiency virus 1, read-out: Activity, Phenosense assay, Y143R
Description: as §1, §2

[6] = tested on: HIV-1 reporter virus, Q148H/G140S (QHGS) integrase; test: Luciferase reporter virus infectivity assay in 293T cells; details: Human immunodeficiency virus 1, HEK-293T, 48 h, read-out: Luciferase assay EC50, QHGS
Description: (§3) Infectivity assays using reporter viruses derived from lentiviral vectors capable of a single round of infection were used to determine the activity (EC50) of compounds. The DNA used to generate viruses for infection was the full-length HIV-1 genome which had been envelope-deleted. In addition, a reporter gene (the firefly luciferase gene from Photinus pyralis) was cloned into the nef region of the HIV backbone for ease of assay readout. […]. Culture supernatants containing VSV-G pseudotyped virions were harvested 64 h post transfection, clarified by centrifugation to remove cell debris, and frozen at −70° C. until use.
(§4) HIV integrase was mutated within a shuttle vector (pGEM) containing the majority of the HIV-1 gag and pol sequence using site-directed mutagenesis to generate sequences that are known to confer resistance to published integrase inhibitors. These include but are not limited to mutations such as Q148H/G140S (in table #QHGS), N155H/E92Q (in table #NHEQ), F121Y/T124K (in table FYTK), Y143R (in table #Y143R) and the triple mutant Q148K/G140A/E138A. (in table#QKGAEA). The mutated integrase coding region within the shuttle vector was sequence verified, and then exchanged for the wild-type (WT) coding sequence in the reporter virus DNA backbone.
(§5) 293T cells were plated out at 12000 cells per well in CellView 96-well cell culture plates (Invitrogen) 16 h prior to compound addition. Compounds were preincubated with cells for 4 h at 37° C. prior to the addition of virus sufficient to generate approximately 10000 Luciferase light units (as measured by the Victor Wallace luminometer) upon assaying using the Bright-Glo™ reagent (Promega) according to the manufacturer's instructions at 48 h post infection.

[7] = tested on: HIV-1 reporter virus, Q148K/G140A/E138A (QKGAEA) integrase; test: as above; details: Human immunodeficiency virus 1, HEK-293T, 48 h, read-out: Luciferase assay EC50, QKGAEA
Description: as §3, §4, §5

[8] = tested on: HIV-1 reporter virus, wild-type (WT) integrase; test: as above; details: Human immunodeficiency virus 1, HEK-293T, 48 h, read-out: Luciferase assay EC50, WT
Description: as §3, §4, §5

[9] = tested on: HIV-1 reporter virus, Y143R integrase; test: as above; details: Human immunodeficiency virus 1, HEK-293T, 48 h, read-out: Luciferase assay EC50, Y143R
Description: as §3, §4, §5

[10] = tested on: HIV-1 reporter virus, N155H/E92Q (NHEQ) integrase; test: as above; details: Human immunodeficiency virus 1, HEK-293T, 48 h, read-out: Luciferase assay EC50, NHEQ
Description: as §3, §4, §5

O=C(NCc1ccc(Cl)c(Cl)c1)c1nc2ccc(N3CCOCC3)cn2c(=O)c1O [Comparative example 1, reference compound]
EC50 [1]: > 10000 nM | EC50 (HIV WT integrase): 1 to 100 nM | EC50 [2]: > 10000 nM

Cc1ccc2nc(-c3ncc(Cc4ccc(F)cc4)s3)c(O)c(=O)n2c1 [Comparative example 2, reference compound]
EC50 [1]: 1000 to 10000 nM | EC50 [3]: 100 to 1000 nM | EC50 (HIV WT integrase): 100 to 1000 nM | EC50 [4]: 100 to 1000 nM | EC50 [2]: 1000 to 10000 nM | EC50 [5]: 100 to 1000 nM

O=C(NCc1ccc(F)cc1)c1nc2c(I)cc(N3CCOCC3)cn2c(=O)c1O [Comparative example 3, reference compound]
EC50 [1]: 1 to 100 nM | EC50 [3]: 1 to 100 nM | EC50 (HIV WT integrase): 1 to 100 nM | EC50 [4]: 1 to 100 nM | EC50 [2]: > 10000 nM | EC50 [5]: 1 to 100 nM

O=c1c(O)c(-c2ncc(Cc3ccc(F)cc3)[nH]2)nc2c(Br)cc(N3CCOCC3)cn12 [Example 47, 2-(9-Bromo-3-hydroxy-7-morpholin-4-yl-4-oxo-4H-pyrido[1,2-a]pyrimidin-2-yl)-5-(4-fluoro-benzyl)-1H-imidazol-1-ium chloride]
EC50 [6]: 100 to 1000 nM

CC(=O)c1cc(N2CCOCC2)cn2c(=O)c(O)c(-c3ncc(Cc4ccc(F)cc4)s3)nc12 [Example 53, 9-Acetyl-2-[5-(4-fluoro-benzyl)-thiazol-2-yl]-3-hydroxy-7-morpholin-4-yl-pyrido[1,2-a]pyrimidin-4-one]
EC50 [6]: 100 to 1000 nM

CC(C)N1CCN(c2cc(N3CCOCC3)cn3c(=O)c(O)c(-c4ncc(Cc5ccc(F)cc5)s4)nc23)C1=O [Example 56, 2-[5-(4-Fluoro-benzyl)-thiazol-2-yl]-3-hydroxy-9-(3-isopropyl-2-oxo-imidazolidin-1-yl)-7-morpholin-4-yl-pyrido[1,2-a]pyrimidin-4-one]
EC50 [7]: 1 to 100 nM | EC50 [8]: 1 to 100 nM | EC50 [9]: 1 to 100 nM | EC50 [6]: 1 to 100 nM | EC50 [10]: 1 to 100 nM

CN1CCN(c2cc(N3CCOCC3)cn3c(=O)c(O)c(-c4ncc(Cc5ccc(F)c(Cl)c5)s4)nc23)C1=O [Example 60, 2-[5-(3-Chloro-4-fluoro-benzyl)-thiazol-2-yl]-3-hydroxy-9-(3-methyl-2-oxo-imidazolidin-1-yl)-7-morpholin-4-yl-pyrido[1,2-a]pyrimidin-4-one]
EC50 [7]: 1 to 100 nM | EC50 [8]: 1 to 100 nM | EC50 [9]: 1 to 100 nM | EC50 [6]: 1 to 100 nM | EC50 [10]: 1 to 100 nM

CN1CCN(c2cc(N(C)C)cn3c(=O)c(O)c(-c4ncc(Cc5ccc(F)cc5)s4)nc23)C1=O [Example 70, 7-Dimethylamino-2-[5-(4-fluoro-benzyl)-thiazol-2-yl]-3-hydroxy-9-(3-methyl-2-oxo-imidazolidin-1-yl)-pyrido[1,2-a]pyrimidin-4-one]
EC50 [8]: 1 to 100 nM | EC50 [6]: 1 to 100 nM | EC50 [10]: 1 to 100 nM

CN1CCN(c2cc(N(C)C)cn3c(=O)c(O)c(-c4ncc(Cc5ccc(F)cc5)[nH]4)nc23)C1=O [Example 72, 2-(7-(dimethylamino)-3-hydroxy-9-(3-methyl-2-oxoimidazolidin-1-yl)-4-oxo-4H-pyrido[1,2-a]pyrimidin-2-yl)-5-(4-fluorobenzyl)-1H-imidazol-3-ium chloride]
EC50 [6]: 100 to 1000 nM

CN1CCN(c2cc(N3CCOCC3)cn3c(=O)c(O)c(-c4ncc(Cc5ccc(F)c(Cl)c5)[nH]4)nc23)C1=O [Example 77, 5-(3-chloro-4-fluorobenzyl)-2-(3-hydroxy-9-(3-methyl-2-oxoimidazolidin-1-yl)-7-morpholino-4-oxo-4H-pyrido[1,2-a]pyrimidin-2-yl)-1H-imidazol-3-ium chloride]
EC50 [8]: 1 to 100 nM | EC50 [6]: 100 to 1000 nM | EC50 [10]: 1 to 100 nM

CN1CCN(c2cc(N3CCOCC3)cn3c(=O)c(O)c(-c4ncc(Cc5ccc(F)c(F)c5)[nH]4)nc23)C1=O [Example 79, 5-(3,4-difluorobenzyl)-2-(3-hydroxy-9-(3-methyl-2-oxoimidazolidin-1-yl)-7-morpholino-4-oxo-4H-pyrido[1,2-a]pyrimidin-2-yl)-1H-imidazol-3-ium chloride]
EC50 [8]: 1 to 100 nM | EC50 [6]: 100 to 1000 nM | EC50 [10]: 1 to 100 nM

O=C1CCCN1c1cc(N2CCOCC2)cn2c(=O)c(O)c(-c3ncc(Cc4ccc(F)cc4)[nH]3)nc12 [Example 83, 5-(4-fluorobenzyl)-2-(3-hydroxy-7-morpholino-4-oxo-9-(2-oxopyrrolidin-1-yl)-4H-pyrido[1,2-a]pyrimidin-2-yl)-1H-imidazol-3-ium chloride]
EC50 [6]: 100 to 1000 nM

O=C1OCCN1c1cc(N2CCOCC2)cn2c(=O)c(O)c(-c3ncc(Cc4ccc(F)cc4)[nH]3)nc12 [Example 87, 5-(4-fluorobenzyl)-2-(3-hydroxy-7-morpholino-4-oxo-9-(2-oxooxazolidin-3-yl)-4H-pyrido[1,2-a]pyrimidin-2-yl)-1H-imidazol-3-ium chloride]
EC50 [6]: 100 to 1000 nM

CN1CCN(c2cc(N3CCOCC3)cn3c(=O)c(O)c(-c4ncc(Cc5ccc(F)cc5)[nH]4)nc23)S1(=O)=O [Example 91, 4-(4-Fluoro-benzyl)-2-[3-hydroxy-9-(5-methyl-1,1-dioxo-116-[1,2,5]thiadiazolidin-2-yl)-7-morpholin-4-yl-4-oxo-4H-pyrido[1,2-a]pyrimidin-2-yl]-3H-imidazol-1-ium; chloride]
EC50 [8]: 1 to 100 nM | EC50 [6]: 1 to 100 nM | EC50 [10]: 1 to 100 nM

CN(c1cc(N2CCOCC2)cn2c(=O)c(O)c(-c3ncc(Cc4ccc(F)cc4)[nH]3)nc12)S(C)(=O)=O [Example 95, 5-(4-fluorobenzyl)-2-(3-hydroxy-9-(N-methylmethylsulfonamido)-7-morpholino-4-oxo-4H-pyrido[1,2-a]pyrimidin-2-yl)-1H-imidazol-3-ium chloride]
EC50 [8]: 1 to 100 nM | EC50 [6]: 100 to 1000 nM | EC50 [10]: 1 to 100 nM

O=C1CCCN1c1cc(N2CCOCC2)cn2c(=O)c(O)c(-c3ncc(Cc4ccc(F)cc4)s3)nc12 [Example 97, 2-[5-(4-Fluoro-benzyl)-thiazol-2-yl]-3-hydroxy-7-morpholin-4-yl-9-(2-oxo-pyrrolidin-1-yl)-pyrido[1,2-a]pyrimidin-4-one]
EC50 [6]: 100 to 1000 nM

O=c1c(O)c(-c2ncc(Cc3ccc(Cl)c(Cl)c3)s2)nc2c(N3CCCS3(=O)=O)cc(N3CCOCC3)cn12 [Example 108, 2-[5-(3,4-Dichloro-benzyl)-thiazol-2-yl]-9-(1,1-dioxo-116-isothiazolidin-2-yl)-3-hydroxy-7-morpholin-4-yl-pyrido[1,2-a]pyrimidin-4-one]
EC50 [8]: 1 to 100 nM | EC50 [6]: 100 to 1000 nM

CN1CCN(c2cc(N3CCOCC3)cn3c(=O)c(O)c(-c4ncc(Cc5ccc(F)cc5)[nH]4)nc23)C1=O [Example 109, 5-(4-Fluoro-benzyl)-2-[3-hydroxy-9-(3-methyl-2-oxo-imidazolidin-1-yl)-7-morpholin-4-yl-4-oxo-4H-pyrido[1,2-a]pyrimidin-2-yl]-1H-imidazol-1-ium; chloride]
EC50 [8]: 1 to 100 nM | EC50 [6]: 100 to 1000 nM | EC50 [10]: 100 to 1000 nM
